Results: patent US11168131B2, “Antibody molecule-drug conjugates and uses thereof” (priority 2015, dated 2021)

Legend:
E. coli = assay: Minimal inhibitory concentration (MIC) assay, broth microdilution; type: cell-based, Escherichia coli; conditions: for MIC (mg/ml) Eco 43745: in the presence of PBS
S. aureus = assay: as above; type: cell-based, Staphylococcus aureus; conditions: in the presence of PBS
P. aeruginosa [1] = assay: MIC in the presence of 50% human serum (hsMIC); type: cell-based, Pseudomonas aeruginosa; conditions: for hsMIC/MIC: Pae 27853, ratio of hsMIC to MIC; for 50% hsMIC (μg/ml) Pae 27853: in the presence of 50% human serum
Protocol: In an embodiment, the MIC is determined in the presence of phosphate-buffered saline (PBS). In an embodiment, the MIC or hsMIC is determined on per ADC basis. In an embodiment, the MIC or hsMIC is determined on per payload or antimicrobial peptide basis.

P. aeruginosa [2] = assay: Minimal inhibitory concentration (MIC) assay, broth microdilution; type: cell-based, Pseudomonas aeruginosa; conditions: for MIC (mg/ml) Pae 27853 / MIC (mg/ml) Pae 39324: in the presence of PBS
K. pneumoniae = assay: as above; type: cell-based, Klebsiella pneumoniae; conditions: in the presence of PBS
[3] = test system: multiple drug resistant (MDR) strains of P. aeruginosa; assay: Microbial killing assay against multiple drug resistant strains; type: cell-based, Pseudomonas aeruginosa; conditions: assay as in Example 15; for 50% Killing Activity BAA-2108: MDR P. aeruginosa strain BAA-2108; for 50% Killing Activity BAA-2110: MDR P. aeruginosa strain BAA-2110; for 50% Killing Activity BAA-2114: MDR P. aeruginosa strain BAA-2114; for 50% Killing Activity Pae 27853: P. aeruginosa strain 27853
Protocol: The microbial killing assay was performed as follows. Bacterial cells were grown aerobically overnight on agar plates at 37° C. Overnight plates were used to seed 30 ml cultures of growth media in 250 ml vented flasks. Cultures were grown aerobically at 37° C., shaking at 150 rpm. Growth was monitored at A600 […] and bacterial cells were harvested at mid-log growth. Ten ml of culture was pelleted at 4000×G for 10 minutes and washed one time with PBS plus 1% BSA before re-suspending in 2 ml PBS+BSA. […] Cultures were diluted to 1×10^4 cells/ml in PBS plus BSA. Test articles were diluted in PBS+1% BSA and 50 μl per concentration tested was loaded into a 96 well polypropylene microtiter plate. Fifty μl of diluted culture was added to all test wells as well as no compound control wells. Plates were shaken and incubated at 37° C., 90 minutes, static. Ten μl from each assay well was plated onto agar plates and incubated at 37° C. overnight. Percent killing was determined by the CFU for test wells compared to the CFU for no compound control wells.

Substance	hsMIC/MIC (P. aeruginosa [1])	50% hsMIC (μg/ml) Pae 27853 (P. aeruginosa [1]) [µg/mL]	MIC (mg/ml) Pae 27853 (P. aeruginosa [2]) [mg/mL]	MIC (mg/ml) Pae 39324 (P. aeruginosa [2]) [mg/mL]	MIC (mg/ml) Eco 43745 (E. coli) [mg/mL]	further results
(MAL)-(EG3)-GIGKFLKKAKKFGKAFVKILKK [peptide 21]						MIC μg/ml Eco 25922 (E. coli): 8 µg/mL
Ceftazadime [reference compound]	1	1	1	1		MIC (mg/ml) Sau 29213 (S. aureus): 0.004 mg/mL
GAFGNFLKGVAKKAGLKILSIAQCKLFGTC [peptide 70]						MIC μg/ml Eco 25922 (E. coli): 4 µg/mL; MIC μg/ml Pae 27853 (P. aeruginosa [2]): 8 µg/mL
GGG-D-Dab-cyclic(L-Dab-L-Dab-D-Leu-L-Phe-L-Dab-L-Dab-L-Leu) [GGG-Octapeptin]	1	2	2	2		MIC (mg/ml) Sau 29213 (S. aureus): >0.128 mg/mL; MIC (mg/ml) Kpn 700603 (K. pneumoniae): >0.128 mg/mL
GGGGIGKFLKKAKKFGKAFVKILKK [Peptide P261]					0.004	
GGGGLRKRLRKFRNKIKEKLKKIGQKIQGLLPKLA [Peptide P271]					0.004	
GGGGLRRLGRKIAHGIKKYGPTILRIIRIAG [Peptide P293]			8	2	0.004	MIC (mg/ml) Kpn 700603 (K. pneumoniae): 0.004 mg/mL
GGGGRFKRFRKKFKKLFKKLSPVIPLLHLG [Peptide P295]	0.5	2	4	4		50% Killing Activity BAA-2108 [3]: 0.6 µg/mL; 50% Killing Activity BAA-2110 [3]: 0.6 µg/mL; 50% Killing Activity BAA-2114 [3]: 0.14 µg/mL; 50% Killing Activity Pae 27853 [3]: 0.3 µg/mL
GGGGSGGGGSGIGKFLKKAKKFGKAFVKILKK [peptide 23]						MIC μg/ml Eco 25922 (E. coli): 8 µg/mL
GGGKFFRKLKKSVKKRAKEFFKKPRVIGVSIPF [Peptide P297]	2	8	4	2	0.002	50% Killing Activity BAA-2108 [3]: 0.28 µg/mL; 50% Killing Activity BAA-2110 [3]: 0.28 µg/mL; 50% Killing Activity BAA-2114 [3]: 0.07 µg/mL; 50% Killing Activity Pae 27853 [3]: 0.04 µg/mL
GGGKRFKKFFKKLKNSVKKRAKKFFKKPRVIGVSIPF [Peptide P296]	0.25	1	4	2	0.004	
GGGLLGDFFRKSKEKIGKEFKRIVQRIKDFLRNLVPRTES [Peptide P265]	>4	>128			0.008	MIC (mg/ml) Kpn 700603 (K. pneumoniae): >0.128 mg/mL
GGGRGLRRLGRKIAHGVKKYGPTVLRIIKKYG [Peptide P294]					0.002	MIC (mg/ml) Kpn 700603 (K. pneumoniae): 0.008 mg/mL
GIGKFLKKAKKFGKAFVKILKK [peptide 109]						MIC μg/ml Eco 25922 (E. coli): 4 µg/mL; MIC μg/ml Pae 27853 (P. aeruginosa [2]): 8 µg/mL
GIGKFLKKAKKFGKAFVKILKKGGGGSGGGGS [peptide 24]						MIC μg/ml Pae 27853 (P. aeruginosa [2]): 8 µg/mL
GLRKRLRKFRNKIKEKLKKIGQKIQGLLPKLA [Peptide 33]						MIC μg/ml Eco 25922 (E. coli): 8 µg/mL; MIC μg/ml Pae 27853 (P. aeruginosa [2]): 8 µg/mL
RLGNFFRKAKKKIGRGLKKIGQKIKDFLGNLVPRTES [peptide 128]						MIC μg/ml Pae 27853 (P. aeruginosa [2]): 8 µg/mL
